Reference: the NIST ThermoML archive (doi:10.1021/je501041r)
Numbers after ± are expanded uncertainties.

Experiment: xn = mol fraction of the nth substance listed
Conditions: 101 kPa, Liquid; for viscosity: Capillary tube (Ostwald / Ubbelohde) method; for mass density: Vibrating tube method

CCCCCCO [hexan-1-ol] + CC(C)CC(C)(C)C
Conditions | mass density [kg/m3] | viscosity [mPa·s]
298.15 K, x2 = 0 | 815.3 ± 2 | 4.605 ± 0.056
298.15 K, x2 = 0.1001 | 799.99 ± 2 | 3.428 ± 0.042
298.15 K, x2 = 0.2 | 785 ± 2 | 2.565 ± 0.031
298.15 K, x2 = 0.3001 | 770.65 ± 2 | 1.933 ± 0.023
298.15 K, x2 = 0.4 | 756.92 ± 2 | 1.452 ± 0.017
298.15 K, x2 = 0.5 | 743.89 ± 2 | 1.124 ± 0.013
298.15 K, x2 = 0.6001 | 731.33 ± 2 | 0.899 ± 0.011
298.15 K, x2 = 0.7001 | 719.63 ± 2 | 0.737 ± 0.009
298.15 K, x2 = 0.7997 | 708.41 ± 2 | 0.621 ± 0.007
298.15 K, x2 = 0.8998 | 697.73 ± 2 | 0.536 ± 0.006
298.15 K, x2 = 0.9199 | 695.61 ± 2 | –
298.15 K, x2 = 0.9396 | 693.66 ± 2 | –
298.15 K, x2 = 0.9595 | 691.69 ± 2 | –
303.15 K, x2 = 0 | 811.71 ± 2 | 3.944 ± 0.048
303.15 K, x2 = 0.1001 | 796.32 ± 2 | 2.958 ± 0.036
303.15 K, x2 = 0.2 | 781.24 ± 2 | 2.236 ± 0.027
303.15 K, x2 = 0.3001 | 766.82 ± 2 | 1.728 ± 0.021
303.15 K, x2 = 0.4 | 753.03 ± 2 | 1.306 ± 0.016
303.15 K, x2 = 0.5 | 739.93 ± 2 | 1.051 ± 0.013
303.15 K, x2 = 0.6001 | 727.33 ± 2 | 0.829 ± 0.01
303.15 K, x2 = 0.7001 | 715.58 ± 2 | 0.688 ± 0.008
303.15 K, x2 = 0.7997 | 704.3 ± 2 | 0.582 ± 0.007
303.15 K, x2 = 0.8998 | 693.58 ± 2 | 0.504 ± 0.006
303.15 K, x2 = 0.9199 | 691.45 ± 2 | –
303.15 K, x2 = 0.9396 | 689.52 ± 2 | –
303.15 K, x2 = 0.9595 | 687.54 ± 2 | –
308.15 K, x2 = 0 | 808.09 ± 2 | 3.414 ± 0.042
308.15 K, x2 = 0.1001 | 792.61 ± 2 | 2.592 ± 0.032
308.15 K, x2 = 0.2 | 777.46 ± 2 | 1.965 ± 0.024
308.15 K, x2 = 0.3001 | 762.96 ± 2 | 1.536 ± 0.018
308.15 K, x2 = 0.4 | 749.11 ± 2 | 1.18 ± 0.014
308.15 K, x2 = 0.5 | 735.95 ± 2 | 0.941 ± 0.011
308.15 K, x2 = 0.6001 | 723.29 ± 2 | 0.775 ± 0.009
308.15 K, x2 = 0.7001 | 711.48 ± 2 | 0.643 ± 0.008
308.15 K, x2 = 0.7997 | 700.16 ± 2 | 0.546 ± 0.007
308.15 K, x2 = 0.8998 | 689.39 ± 2 | 0.476 ± 0.006
308.15 K, x2 = 0.9199 | 687.26 ± 2 | –
308.15 K, x2 = 0.9396 | 685.32 ± 2 | –
308.15 K, x2 = 0.9595 | 683.35 ± 2 | –
313.15 K, x2 = 0 | 804.43 ± 2 | 2.96 ± 0.036
313.15 K, x2 = 0.1001 | 788.88 ± 2 | 2.275 ± 0.028
313.15 K, x2 = 0.2 | 773.65 ± 2 | 1.745 ± 0.021
313.15 K, x2 = 0.3001 | 759.07 ± 2 | 1.361 ± 0.016
313.15 K, x2 = 0.4 | 745.15 ± 2 | 1.071 ± 0.013
313.15 K, x2 = 0.5 | 731.93 ± 2 | 0.861 ± 0.01
313.15 K, x2 = 0.6001 | 719.21 ± 2 | 0.721 ± 0.009
313.15 K, x2 = 0.7001 | 707.36 ± 2 | 0.596 ± 0.007
313.15 K, x2 = 0.7997 | 695.98 ± 2 | 0.512 ± 0.006
313.15 K, x2 = 0.8998 | 685.18 ± 2 | 0.449 ± 0.005
313.15 K, x2 = 0.9199 | 683.03 ± 2 | –
313.15 K, x2 = 0.9396 | 681.09 ± 2 | –
313.15 K, x2 = 0.9595 | 679.12 ± 2 | –
318.15 K, x2 = 0 | 800.75 ± 2 | 2.581 ± 0.032
318.15 K, x2 = 0.1001 | 785.1 ± 2 | 1.997 ± 0.024
318.15 K, x2 = 0.2 | 769.8 ± 2 | 1.577 ± 0.019
318.15 K, x2 = 0.3001 | 755.15 ± 2 | 1.23 ± 0.015
318.15 K, x2 = 0.4 | 741.15 ± 2 | 0.976 ± 0.012
318.15 K, x2 = 0.5 | 727.88 ± 2 | 0.807 ± 0.01
318.15 K, x2 = 0.6001 | 715.1 ± 2 | 0.658 ± 0.008
318.15 K, x2 = 0.7001 | 703.19 ± 2 | 0.559 ± 0.007
318.15 K, x2 = 0.7997 | 691.77 ± 2 | 0.483 ± 0.006
318.15 K, x2 = 0.8998 | 680.92 ± 2 | 0.424 ± 0.005
318.15 K, x2 = 0.9199 | 678.78 ± 2 | –
318.15 K, x2 = 0.9396 | 676.83 ± 2 | –
318.15 K, x2 = 0.9595 | 674.86 ± 2 | –
323.15 K, x2 = 0 | 797.02 ± 2 | 2.251 ± 0.028
323.15 K, x2 = 0.1001 | 781.29 ± 2 | 1.778 ± 0.022
323.15 K, x2 = 0.2 | 765.91 ± 2 | 1.391 ± 0.017
323.15 K, x2 = 0.3001 | 751.18 ± 2 | 1.113 ± 0.013
323.15 K, x2 = 0.4 | 737.12 ± 2 | 0.894 ± 0.011
323.15 K, x2 = 0.5 | 723.78 ± 2 | 0.747 ± 0.009
323.15 K, x2 = 0.6001 | 710.95 ± 2 | 0.623 ± 0.007
323.15 K, x2 = 0.7001 | 698.99 ± 2 | 0.523 ± 0.006
323.15 K, x2 = 0.7997 | 687.52 ± 2 | 0.455 ± 0.006
323.15 K, x2 = 0.8998 | 676.63 ± 2 | 0.402 ± 0.005
323.15 K, x2 = 0.9199 | 674.48 ± 2 | –
323.15 K, x2 = 0.9396 | 672.54 ± 2 | –
323.15 K, x2 = 0.9595 | 670.56 ± 2 | –

CCCCCO [pentan-1-ol] + CC(C)CC(C)(C)C
Conditions | mass density [kg/m3] | viscosity [mPa·s]
298.15 K, x2 = 0 | 810.59 ± 2 | 3.458 ± 0.042
298.15 K, x2 = 0.1004 | 794.33 ± 2 | 2.615 ± 0.032
298.15 K, x2 = 0.2003 | 778.35 ± 2 | 1.984 ± 0.024
298.15 K, x2 = 0.3 | 763.77 ± 2 | 1.525 ± 0.018
298.15 K, x2 = 0.4 | 749.96 ± 2 | 1.189 ± 0.014
298.15 K, x2 = 0.5 | 737.18 ± 2 | 0.948 ± 0.011
298.15 K, x2 = 0.5999 | 725.64 ± 2 | 0.785 ± 0.009
298.15 K, x2 = 0.6998 | 714.97 ± 2 | 0.663 ± 0.008
298.15 K, x2 = 0.7999 | 705.08 ± 2 | 0.579 ± 0.007
298.15 K, x2 = 0.8996 | 696.03 ± 2 | 0.518 ± 0.006
303.15 K, x2 = 0 | 807.89 ± 2 | 3.007 ± 0.037
303.15 K, x2 = 0.1004 | 790.55 ± 2 | 2.291 ± 0.028
303.15 K, x2 = 0.2003 | 774.49 ± 2 | 1.758 ± 0.021
303.15 K, x2 = 0.3 | 759.83 ± 2 | 1.365 ± 0.016
303.15 K, x2 = 0.4 | 745.97 ± 2 | 1.076 ± 0.013
303.15 K, x2 = 0.5 | 733.13 ± 2 | 0.867 ± 0.01
303.15 K, x2 = 0.5999 | 721.55 ± 2 | 0.724 ± 0.009
303.15 K, x2 = 0.6998 | 710.84 ± 2 | 0.623 ± 0.007
303.15 K, x2 = 0.7999 | 700.93 ± 2 | 0.552 ± 0.007
303.15 K, x2 = 0.8996 | 691.85 ± 2 | 0.49 ± 0.006
308.15 K, x2 = 0 | 804.16 ± 2 | 2.625 ± 0.032
308.15 K, x2 = 0.1004 | 786.73 ± 2 | 2.038 ± 0.025
308.15 K, x2 = 0.2003 | 770.6 ± 2 | 1.562 ± 0.019
308.15 K, x2 = 0.3 | 755.86 ± 2 | 1.225 ± 0.015
308.15 K, x2 = 0.4 | 741.94 ± 2 | 0.977 ± 0.012
308.15 K, x2 = 0.5 | 729.05 ± 2 | 0.797 ± 0.01
308.15 K, x2 = 0.5999 | 717.43 ± 2 | 0.671 ± 0.008
308.15 K, x2 = 0.6998 | 706.68 ± 2 | 0.579 ± 0.007
308.15 K, x2 = 0.7999 | 696.74 ± 2 | 0.513 ± 0.006
308.15 K, x2 = 0.8996 | 687.64 ± 2 | 0.466 ± 0.006
313.15 K, x2 = 0 | 800.4 ± 2 | 2.317 ± 0.029
313.15 K, x2 = 0.1004 | 782.88 ± 2 | 1.806 ± 0.022
313.15 K, x2 = 0.2003 | 766.66 ± 2 | 1.403 ± 0.017
313.15 K, x2 = 0.3 | 751.85 ± 2 | 1.105 ± 0.013
313.15 K, x2 = 0.4 | 737.87 ± 2 | 0.89 ± 0.011
313.15 K, x2 = 0.5 | 724.94 ± 2 | 0.734 ± 0.009
313.15 K, x2 = 0.5999 | 713.27 ± 2 | 0.624 ± 0.008
313.15 K, x2 = 0.6998 | 702.49 ± 2 | 0.549 ± 0.007
313.15 K, x2 = 0.7999 | 692.51 ± 2 | 0.482 ± 0.006
313.15 K, x2 = 0.8996 | 683.4 ± 2 | 0.438 ± 0.005
318.15 K, x2 = 0 | 796.59 ± 2 | 2.029 ± 0.025
318.15 K, x2 = 0.1004 | 778.99 ± 2 | 1.618 ± 0.02
318.15 K, x2 = 0.2003 | 762.69 ± 2 | 1.255 ± 0.015
318.15 K, x2 = 0.3 | 747.8 ± 2 | 1.001 ± 0.012
318.15 K, x2 = 0.4 | 733.76 ± 2 | 0.815 ± 0.01
318.15 K, x2 = 0.5 | 720.78 ± 2 | 0.679 ± 0.008
318.15 K, x2 = 0.5999 | 709.06 ± 2 | 0.582 ± 0.007
318.15 K, x2 = 0.6998 | 698.25 ± 2 | 0.518 ± 0.006
318.15 K, x2 = 0.7999 | 688.24 ± 2 | 0.454 ± 0.006
318.15 K, x2 = 0.8996 | 679.11 ± 2 | 0.422 ± 0.005
323.15 K, x2 = 0 | 792.75 ± 2 | 1.795 ± 0.022
323.15 K, x2 = 0.1004 | 775.05 ± 2 | 1.443 ± 0.018
323.15 K, x2 = 0.2003 | 758.67 ± 2 | 1.131 ± 0.014
323.15 K, x2 = 0.3 | 743.71 ± 2 | 0.914 ± 0.011
323.15 K, x2 = 0.4 | 729.61 ± 2 | 0.749 ± 0.009
323.15 K, x2 = 0.5 | 716.58 ± 2 | 0.63 ± 0.008
323.15 K, x2 = 0.5999 | 704.82 ± 2 | 0.548 ± 0.007
323.15 K, x2 = 0.6998 | 693.98 ± 2 | 0.486 ± 0.006
323.15 K, x2 = 0.7999 | 683.93 ± 2 | 0.428 ± 0.005
323.15 K, x2 = 0.8996 | 674.79 ± 2 | 0.393 ± 0.005
